This passage reports Activity results from ChEMBL document CHEMBL5696441 (Nat Chem Biol, 2011).

In test [1] the target is Tyrosine-protein kinase ABL1 (Homo sapiens) (UniProt P00519). In words: Inhibition of ABL1 (unknown origin) assessed as remaining activity at 1 uM by Kinome scan method relative to control.
The target in test [2] is Atypical kinase COQ8A, mitochondrial (Homo sapiens) (UniProt Q8NI60). Description: Inhibition of ADCK3 (unknown origin) assessed as remaining activity at 1 uM by Kinome scan method relative to control.
Test [3] has as its target Tyrosine-protein kinase Blk (Homo sapiens) (UniProt P51451). In words: Inhibition of BLK (unknown origin) assessed as remaining activity at 1 uM by Kinome scan method relative to control.
The target in test [4] is Death-associated protein kinase 1 (Homo sapiens) (UniProt P53355). In words: Inhibition of DAPK1 (unknown origin) assessed as remaining activity at 1 uM by Kinome scan method relative to control.
The target of test [5] is T1, Serine/threonine-protein kinase 17A (Homo sapiens) (UniProt Q9UEE5).
T1 sequence (whole entry): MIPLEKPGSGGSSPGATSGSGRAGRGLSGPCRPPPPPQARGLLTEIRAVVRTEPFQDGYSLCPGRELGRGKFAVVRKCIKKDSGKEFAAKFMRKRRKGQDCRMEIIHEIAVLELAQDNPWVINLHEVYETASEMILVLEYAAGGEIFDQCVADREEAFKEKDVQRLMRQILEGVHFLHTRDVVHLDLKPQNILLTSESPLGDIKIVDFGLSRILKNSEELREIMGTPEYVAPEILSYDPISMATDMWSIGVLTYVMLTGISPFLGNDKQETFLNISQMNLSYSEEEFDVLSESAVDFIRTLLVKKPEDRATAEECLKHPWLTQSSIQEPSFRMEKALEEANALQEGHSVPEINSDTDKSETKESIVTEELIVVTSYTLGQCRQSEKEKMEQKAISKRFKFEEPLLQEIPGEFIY
Description: Inhibition of DRAK1 (unknown origin) assessed as remaining activity at 1 uM by Kinome scan method relative to control.

Test [6] deals with Serine/threonine-protein kinase LATS2 (Homo sapiens) (UniProt Q9NRM7). In words: Inhibition of LATS2 (unknown origin) assessed as remaining activity at 1 uM by Kinome scan method relative to control.
Test [7] has as its target T2, Muscle, skeletal receptor tyrosine-protein kinase (Homo sapiens) (UniProt O15146).
T2 sequence (whole entry): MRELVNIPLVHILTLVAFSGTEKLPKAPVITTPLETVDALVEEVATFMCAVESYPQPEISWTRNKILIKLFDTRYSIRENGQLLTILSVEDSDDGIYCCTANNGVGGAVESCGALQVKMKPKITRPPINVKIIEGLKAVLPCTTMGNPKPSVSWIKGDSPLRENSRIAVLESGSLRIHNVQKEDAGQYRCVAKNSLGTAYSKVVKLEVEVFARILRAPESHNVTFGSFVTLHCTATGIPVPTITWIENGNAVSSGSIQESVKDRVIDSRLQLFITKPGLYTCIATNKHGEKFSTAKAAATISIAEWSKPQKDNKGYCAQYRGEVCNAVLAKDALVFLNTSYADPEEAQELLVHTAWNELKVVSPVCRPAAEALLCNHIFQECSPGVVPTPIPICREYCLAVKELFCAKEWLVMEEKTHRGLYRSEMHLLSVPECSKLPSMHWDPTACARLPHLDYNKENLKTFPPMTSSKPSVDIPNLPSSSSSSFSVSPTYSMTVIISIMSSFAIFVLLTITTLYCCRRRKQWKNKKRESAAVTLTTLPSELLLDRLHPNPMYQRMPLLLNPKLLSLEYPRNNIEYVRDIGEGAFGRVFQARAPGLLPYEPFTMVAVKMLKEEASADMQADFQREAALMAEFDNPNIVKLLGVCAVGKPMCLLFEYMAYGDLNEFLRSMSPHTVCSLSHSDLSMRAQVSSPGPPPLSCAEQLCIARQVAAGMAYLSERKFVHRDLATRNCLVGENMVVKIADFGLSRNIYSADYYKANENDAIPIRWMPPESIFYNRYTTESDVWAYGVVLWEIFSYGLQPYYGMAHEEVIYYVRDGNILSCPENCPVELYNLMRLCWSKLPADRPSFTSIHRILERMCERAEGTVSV
In words: Inhibition of MUSK (unknown origin) assessed as remaining activity at 1 uM by Kinome scan method relative to control.

The target of test [8] is Serine/threonine-protein kinase N2 (Homo sapiens) (UniProt Q16513). In words: Inhibition of PKN2 (unknown origin) assessed as remaining activity at 1 uM by Kinome scan method relative to control.
Test [9] addresses T3, Serine/threonine-protein kinase D3 (Homo sapiens) (UniProt O94806).
T3 sequence (whole entry): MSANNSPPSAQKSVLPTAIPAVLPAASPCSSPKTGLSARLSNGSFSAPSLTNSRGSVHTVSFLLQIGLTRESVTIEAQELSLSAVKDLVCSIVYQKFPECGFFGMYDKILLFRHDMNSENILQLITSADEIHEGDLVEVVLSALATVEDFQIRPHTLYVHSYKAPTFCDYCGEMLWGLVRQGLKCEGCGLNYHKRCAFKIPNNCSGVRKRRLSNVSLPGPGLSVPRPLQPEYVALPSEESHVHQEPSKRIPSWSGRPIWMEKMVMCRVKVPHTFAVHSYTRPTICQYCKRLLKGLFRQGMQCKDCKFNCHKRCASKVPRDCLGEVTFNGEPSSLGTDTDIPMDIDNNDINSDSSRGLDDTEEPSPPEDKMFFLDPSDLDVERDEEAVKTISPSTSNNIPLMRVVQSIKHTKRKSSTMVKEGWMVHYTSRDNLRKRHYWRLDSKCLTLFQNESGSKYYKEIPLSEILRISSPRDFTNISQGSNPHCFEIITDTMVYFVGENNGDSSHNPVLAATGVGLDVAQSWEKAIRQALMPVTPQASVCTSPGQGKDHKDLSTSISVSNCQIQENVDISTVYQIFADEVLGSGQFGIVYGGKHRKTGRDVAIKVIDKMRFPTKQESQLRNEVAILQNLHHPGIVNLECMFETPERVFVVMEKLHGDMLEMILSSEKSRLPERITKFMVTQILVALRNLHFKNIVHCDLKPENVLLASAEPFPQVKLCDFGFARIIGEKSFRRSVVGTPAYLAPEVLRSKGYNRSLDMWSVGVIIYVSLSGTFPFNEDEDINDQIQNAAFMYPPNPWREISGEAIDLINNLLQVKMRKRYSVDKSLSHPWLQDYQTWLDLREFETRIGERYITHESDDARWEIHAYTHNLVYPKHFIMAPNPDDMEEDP
In words: Inhibition of PRKD3 (unknown origin) assessed as remaining activity at 1 uM by Kinome scan method relative to control.

Test [10] addresses Receptor-interacting serine/threonine-protein kinase 4 (Homo sapiens) (UniProt P57078). In words: Inhibition of RIPK4 (unknown origin) assessed as remaining activity at 1 uM by Kinome scan method relative to control.

Chain of Tyrosine-protein kinase ABL1 (Homo sapiens) (P00519 whole entry): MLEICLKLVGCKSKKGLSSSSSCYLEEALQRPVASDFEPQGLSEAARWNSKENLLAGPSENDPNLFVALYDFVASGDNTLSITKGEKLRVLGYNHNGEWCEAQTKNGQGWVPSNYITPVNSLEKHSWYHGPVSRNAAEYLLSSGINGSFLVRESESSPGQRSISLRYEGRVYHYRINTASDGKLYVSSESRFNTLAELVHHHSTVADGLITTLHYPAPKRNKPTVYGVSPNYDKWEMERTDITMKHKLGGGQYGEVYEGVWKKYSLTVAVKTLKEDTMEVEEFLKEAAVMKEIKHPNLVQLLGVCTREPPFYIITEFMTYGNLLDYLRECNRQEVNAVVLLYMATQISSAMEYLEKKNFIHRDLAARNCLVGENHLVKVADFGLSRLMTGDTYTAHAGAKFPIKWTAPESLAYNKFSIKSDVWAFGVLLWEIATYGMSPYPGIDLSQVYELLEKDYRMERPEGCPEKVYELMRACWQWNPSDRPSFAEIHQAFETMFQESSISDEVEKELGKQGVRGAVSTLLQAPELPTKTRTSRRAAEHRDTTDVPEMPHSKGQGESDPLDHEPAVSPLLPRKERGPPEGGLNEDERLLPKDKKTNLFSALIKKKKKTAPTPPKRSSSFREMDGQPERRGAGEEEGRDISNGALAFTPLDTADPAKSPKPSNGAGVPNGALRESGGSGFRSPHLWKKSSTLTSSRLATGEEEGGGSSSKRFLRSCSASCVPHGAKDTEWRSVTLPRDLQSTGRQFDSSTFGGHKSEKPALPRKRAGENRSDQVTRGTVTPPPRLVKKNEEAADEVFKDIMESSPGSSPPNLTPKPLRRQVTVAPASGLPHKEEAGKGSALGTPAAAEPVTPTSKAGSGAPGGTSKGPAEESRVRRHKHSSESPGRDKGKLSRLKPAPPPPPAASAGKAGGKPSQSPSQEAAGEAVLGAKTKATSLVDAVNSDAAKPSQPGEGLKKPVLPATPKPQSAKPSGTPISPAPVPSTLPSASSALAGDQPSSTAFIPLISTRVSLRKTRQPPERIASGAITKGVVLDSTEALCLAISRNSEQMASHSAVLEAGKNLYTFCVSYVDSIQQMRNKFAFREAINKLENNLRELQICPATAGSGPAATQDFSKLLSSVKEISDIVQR
Chain of Death-associated protein kinase 1 (Homo sapiens) (P53355 whole entry, looked up): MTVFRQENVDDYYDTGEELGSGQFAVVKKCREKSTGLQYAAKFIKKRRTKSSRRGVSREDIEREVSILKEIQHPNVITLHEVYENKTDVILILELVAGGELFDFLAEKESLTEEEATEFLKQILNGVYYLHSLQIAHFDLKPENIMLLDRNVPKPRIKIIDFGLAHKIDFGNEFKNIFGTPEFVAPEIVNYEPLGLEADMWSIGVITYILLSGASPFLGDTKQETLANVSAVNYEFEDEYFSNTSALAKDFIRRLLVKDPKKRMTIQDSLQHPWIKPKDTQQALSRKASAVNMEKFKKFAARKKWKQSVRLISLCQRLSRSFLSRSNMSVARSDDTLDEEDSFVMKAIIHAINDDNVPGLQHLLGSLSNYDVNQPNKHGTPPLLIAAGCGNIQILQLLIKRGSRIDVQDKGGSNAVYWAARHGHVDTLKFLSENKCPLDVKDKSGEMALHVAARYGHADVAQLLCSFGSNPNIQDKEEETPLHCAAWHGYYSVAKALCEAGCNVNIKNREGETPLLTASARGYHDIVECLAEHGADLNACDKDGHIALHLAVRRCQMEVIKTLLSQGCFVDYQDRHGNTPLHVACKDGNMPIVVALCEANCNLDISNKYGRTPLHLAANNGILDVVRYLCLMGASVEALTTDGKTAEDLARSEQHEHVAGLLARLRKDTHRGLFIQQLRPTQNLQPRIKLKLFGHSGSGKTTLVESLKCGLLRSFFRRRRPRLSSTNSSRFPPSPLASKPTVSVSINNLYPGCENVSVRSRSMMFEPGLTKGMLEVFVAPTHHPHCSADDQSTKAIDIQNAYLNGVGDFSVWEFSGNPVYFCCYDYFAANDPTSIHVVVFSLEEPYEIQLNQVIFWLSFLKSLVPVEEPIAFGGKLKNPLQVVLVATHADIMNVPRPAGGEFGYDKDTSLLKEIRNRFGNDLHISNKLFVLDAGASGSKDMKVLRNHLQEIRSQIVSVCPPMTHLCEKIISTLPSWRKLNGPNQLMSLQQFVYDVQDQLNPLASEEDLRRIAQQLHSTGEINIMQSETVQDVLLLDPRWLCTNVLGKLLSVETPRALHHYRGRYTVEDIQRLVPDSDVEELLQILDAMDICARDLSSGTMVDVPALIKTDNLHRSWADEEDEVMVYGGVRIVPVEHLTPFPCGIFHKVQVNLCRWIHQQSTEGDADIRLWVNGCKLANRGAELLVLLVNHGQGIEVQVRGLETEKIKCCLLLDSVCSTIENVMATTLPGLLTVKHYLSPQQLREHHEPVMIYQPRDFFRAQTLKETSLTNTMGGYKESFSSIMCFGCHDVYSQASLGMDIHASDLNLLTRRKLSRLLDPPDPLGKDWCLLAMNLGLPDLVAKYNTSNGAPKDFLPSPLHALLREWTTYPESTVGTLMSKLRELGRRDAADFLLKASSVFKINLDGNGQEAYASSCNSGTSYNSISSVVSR
Chain of Serine/threonine-protein kinase N2 (Homo sapiens) (Q16513 whole entry, looked up): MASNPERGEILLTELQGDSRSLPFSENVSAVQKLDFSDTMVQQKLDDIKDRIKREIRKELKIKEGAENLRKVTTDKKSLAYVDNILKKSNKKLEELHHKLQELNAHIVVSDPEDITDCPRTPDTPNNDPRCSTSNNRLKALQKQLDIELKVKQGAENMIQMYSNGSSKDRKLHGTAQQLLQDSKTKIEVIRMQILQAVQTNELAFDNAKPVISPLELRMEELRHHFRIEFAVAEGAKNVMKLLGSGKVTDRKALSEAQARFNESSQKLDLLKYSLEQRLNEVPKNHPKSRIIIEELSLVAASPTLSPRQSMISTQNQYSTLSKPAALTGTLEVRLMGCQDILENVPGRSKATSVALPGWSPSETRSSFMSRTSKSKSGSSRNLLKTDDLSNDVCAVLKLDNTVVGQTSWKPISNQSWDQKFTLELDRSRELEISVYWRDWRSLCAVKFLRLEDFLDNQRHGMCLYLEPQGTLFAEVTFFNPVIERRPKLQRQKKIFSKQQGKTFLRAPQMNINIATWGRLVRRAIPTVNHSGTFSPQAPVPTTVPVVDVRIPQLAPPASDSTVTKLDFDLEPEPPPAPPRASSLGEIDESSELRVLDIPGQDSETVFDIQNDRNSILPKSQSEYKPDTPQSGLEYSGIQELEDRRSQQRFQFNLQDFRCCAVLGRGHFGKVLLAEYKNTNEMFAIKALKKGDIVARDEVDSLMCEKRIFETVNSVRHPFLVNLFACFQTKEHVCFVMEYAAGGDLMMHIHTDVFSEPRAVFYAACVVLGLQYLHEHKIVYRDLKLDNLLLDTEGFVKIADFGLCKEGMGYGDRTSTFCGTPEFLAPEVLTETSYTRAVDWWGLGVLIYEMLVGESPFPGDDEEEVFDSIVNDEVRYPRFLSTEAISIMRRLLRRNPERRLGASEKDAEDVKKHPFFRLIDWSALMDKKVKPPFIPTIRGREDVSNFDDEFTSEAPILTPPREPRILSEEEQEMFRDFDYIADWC
Chain of Atypical kinase COQ8A, mitochondrial (Homo sapiens) (Q8NI60 163-647 limits assumed): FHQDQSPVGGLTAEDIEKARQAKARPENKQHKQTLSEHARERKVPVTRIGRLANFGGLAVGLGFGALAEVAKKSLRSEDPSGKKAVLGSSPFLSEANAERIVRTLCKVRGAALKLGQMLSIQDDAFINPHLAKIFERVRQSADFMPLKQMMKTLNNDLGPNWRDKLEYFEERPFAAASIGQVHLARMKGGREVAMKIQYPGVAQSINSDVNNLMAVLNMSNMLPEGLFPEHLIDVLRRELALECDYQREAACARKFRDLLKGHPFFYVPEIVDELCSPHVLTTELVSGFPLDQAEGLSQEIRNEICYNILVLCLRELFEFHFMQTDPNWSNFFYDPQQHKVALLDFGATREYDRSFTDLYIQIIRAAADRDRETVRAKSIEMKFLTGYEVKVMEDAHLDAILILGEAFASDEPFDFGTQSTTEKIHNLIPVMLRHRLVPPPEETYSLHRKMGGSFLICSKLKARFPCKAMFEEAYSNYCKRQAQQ
Chain of Tyrosine-protein kinase Blk (Homo sapiens) (P51451 2-505 limits assumed): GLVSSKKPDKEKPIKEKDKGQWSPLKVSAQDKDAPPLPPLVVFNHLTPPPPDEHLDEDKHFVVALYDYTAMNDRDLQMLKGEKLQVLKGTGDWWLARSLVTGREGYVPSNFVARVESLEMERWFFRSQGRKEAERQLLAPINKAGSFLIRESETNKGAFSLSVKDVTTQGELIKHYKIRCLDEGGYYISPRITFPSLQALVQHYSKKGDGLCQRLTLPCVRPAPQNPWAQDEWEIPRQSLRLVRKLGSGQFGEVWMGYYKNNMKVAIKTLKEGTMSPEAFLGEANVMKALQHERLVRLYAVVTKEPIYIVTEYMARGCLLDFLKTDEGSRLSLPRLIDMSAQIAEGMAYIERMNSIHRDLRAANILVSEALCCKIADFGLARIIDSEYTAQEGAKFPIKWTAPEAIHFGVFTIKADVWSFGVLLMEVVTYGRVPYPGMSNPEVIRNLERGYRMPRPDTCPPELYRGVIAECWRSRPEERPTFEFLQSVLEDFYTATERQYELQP

Regarding `Nc1ccccc1Nc1ccc2c(c1)CCc1ccccc1C2=O`, the Activity in test [1] was determined as 84%; in test [2] it was 78%; in [3], 66%; in [4], 95%; in test [5], 92%; in [6], 77%. Besides, the Activity in test [7] was 86%; in test [8] it was 89%; in [9], 77%; in test [10], 80%.

As to `O=C1c2ccc(Nc3ccc(F)cc3F)cc2CCc2ccc(OC[C@H](O)CO)cc21` [Skepinone-L], the Activity in [1] is 94%; in test [2], 88%; in [3], 97%; in test [4], 100%; in test [5], 100%; in test [6], 94%. In addition, the Activity in [7] amounted to 90%; in [8], 84%; in [9], 91%; in [10], 90%.
